Experimental data from ChEMBL document CHEMBL1134355 (J Med Chem, 2001).

Key:
[1] = target: T1, Steroid 17-alpha-hydroxylase/17,20 lyase (Homo sapiens, UniProt P05093)
T1 sequence (P05093 whole entry): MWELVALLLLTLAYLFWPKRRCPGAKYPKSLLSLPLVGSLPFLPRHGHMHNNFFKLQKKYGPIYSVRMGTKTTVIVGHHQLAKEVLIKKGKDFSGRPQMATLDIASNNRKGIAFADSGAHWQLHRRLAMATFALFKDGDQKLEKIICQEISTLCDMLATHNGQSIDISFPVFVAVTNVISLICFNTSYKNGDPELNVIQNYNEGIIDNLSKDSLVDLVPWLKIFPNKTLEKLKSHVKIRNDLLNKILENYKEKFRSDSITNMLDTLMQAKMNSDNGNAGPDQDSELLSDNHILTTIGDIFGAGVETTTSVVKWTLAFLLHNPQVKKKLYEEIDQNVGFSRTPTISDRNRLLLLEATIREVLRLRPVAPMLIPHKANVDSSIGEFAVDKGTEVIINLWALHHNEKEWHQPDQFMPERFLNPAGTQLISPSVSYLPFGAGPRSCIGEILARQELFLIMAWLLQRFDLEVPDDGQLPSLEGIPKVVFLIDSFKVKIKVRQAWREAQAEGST

[2] = target: T1, Steroid 17-alpha-hydroxylase/17,20 lyase; remark: listed apart in the source
Aromatase = target: T2, Aromatase (Homo sapiens, UniProt P11511)
T2 sequence (P11511 whole entry): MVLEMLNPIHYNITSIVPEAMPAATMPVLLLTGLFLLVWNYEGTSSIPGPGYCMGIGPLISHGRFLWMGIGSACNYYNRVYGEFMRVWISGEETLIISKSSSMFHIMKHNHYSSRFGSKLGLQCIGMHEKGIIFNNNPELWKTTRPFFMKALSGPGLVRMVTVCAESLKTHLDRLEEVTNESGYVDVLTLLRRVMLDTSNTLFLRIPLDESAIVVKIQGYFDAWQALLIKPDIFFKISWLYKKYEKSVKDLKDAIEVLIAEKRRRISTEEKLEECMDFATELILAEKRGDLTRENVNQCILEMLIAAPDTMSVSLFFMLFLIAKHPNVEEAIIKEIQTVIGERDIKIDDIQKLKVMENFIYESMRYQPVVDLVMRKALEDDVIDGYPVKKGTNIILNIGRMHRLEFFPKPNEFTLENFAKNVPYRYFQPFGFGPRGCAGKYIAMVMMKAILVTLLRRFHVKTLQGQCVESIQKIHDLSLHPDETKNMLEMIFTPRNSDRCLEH

inhibition at 2.5 µM [1] | IC50 [2] | inhibition at 25 µM (Aromatase) | Km (Homo sapiens) | SMILES
5% |  |  |  | O=c1ccoc2cc(Cn3cnnc3)ccc12
9% |  |  |  | O=c1ccoc2cc(Cn3ccnc3)ccc12
98% | 42 nM |  |  | O=c1c2ccccc2oc2c(Br)ccc(Cn3ccnc3)c12
38% |  |  |  | O=c1c2ccccc2oc2c(Cn3ccnc3)ccc(Br)c12
14% |  | 21% |  | COc1ccc2c(=O)c(Cn3cnnc3)c(-c3ccccc3)oc2c1
5% |  |  |  | O=c1ccoc2c(Cn3ccnc3)ccc([N+](=O)[O-])c12
4% |  |  | 0.0651 µM | O=c1c2ccccc2oc2c(Cn3ccnc3)ccc([N+](=O)[O-])c12
33% |  |  |  | O=c1c2ccccc2oc2cc(Cn3ccnc3)ccc12
8% |  | 27% |  | O=c1c2ccccc2oc2cc(Cn3cnnc3)ccc12
92% | 220 nM |  |  | N#Cc1ccc(Cn2ccnc2)c2c(=O)c3ccccc3oc12
94% | 130 nM |  |  | O=c1c2ccccc2oc2c([N+](=O)[O-])ccc(Cn3ccnc3)c12
14% |  |  |  | N#Cc1ccc(Cn2ccnc2)c2oc3ccccc3c(=O)c12
26% |  |  |  | O=c1ccoc2c(Cn3ccnc3)ccc(Br)c12
44% |  |  |  | COc1ccc2c(=O)c(Cn3ccnc3)c(-c3ccccc3)oc2c1
3% |  |  |  | N#Cc1ccc(Cn2ccnc2)c2occc(=O)c12
